The text below walks through data of patent publication US7871794B2, “Enhanced cell-free synthesis of active proteins containing disulfide bonds” (The Board of Trustees of the Leland Stanford Junior …, priority 2007, dated 2011).

One test relates to reduction of GSSG. Nature of the test: Assay for the reduction of oxidized glutathione in PANOx-SP cell-free reactions. Type of test: biochemical, E. coli. The procedure: For determining the effect of pH and IAM concentration on GSSG stabilization, the pH of S30 extracts was adjusted by first adding a small volume of 10 M KOH or HCl to the bottom of an Eppendorf tube. A much larger volume of S30 extract was then rapidly mixed with the small volume of acid or base. The pH was measured with a standardized micro-pH probe (Model 9810BN, Orion, Beverly, Mass.). Several 15 μL PANOx-SP reactions supplemented with 5 mM GSSG and the pK7CAT plasmid were prepared at each pH and IAM concentration. Single reactions were terminated at 15, 38, 60, 90, 120, and 180 minutes for each condition, and the concentration of SH groups was measured as described below.
Assay for the Reduction of Oxidized Glutathione. The reduction of oxidized glutathione was measured by monitoring the increase in concentration of sulfhydryl groups over time. The entire 15 μL in vitro synthesis reaction was diluted with an equal volume of 10% trichloroacetic acid and centrifuged for 10 minutes at 12,000×g and 4° C. Ten microliters of the supernatant was added to wells of a 96-well microtiter plate. To each well, 90 μL of 1 M Tris-HCl (pH 7.8) with 0.44 mg/mL DTNB (5,5′-dithiobis-2-nitrobenzoic acid, TCI America) was added. After 3 minutes at room temperature, the absorbance at 412 nm was measured and the concentration of free thiols determined by comparison to a standard curve determined with GSH solutions of known concentration.

The target of test [1] is T1, thioredoxin reductase (TrxB) (Escherichia coli, UniProt P0A9P4).
T1 construct: made in house; host or cells: cell-free (in vitro) synthesis reaction, E. coli extract
T1 sequence (P0A9P4 whole entry): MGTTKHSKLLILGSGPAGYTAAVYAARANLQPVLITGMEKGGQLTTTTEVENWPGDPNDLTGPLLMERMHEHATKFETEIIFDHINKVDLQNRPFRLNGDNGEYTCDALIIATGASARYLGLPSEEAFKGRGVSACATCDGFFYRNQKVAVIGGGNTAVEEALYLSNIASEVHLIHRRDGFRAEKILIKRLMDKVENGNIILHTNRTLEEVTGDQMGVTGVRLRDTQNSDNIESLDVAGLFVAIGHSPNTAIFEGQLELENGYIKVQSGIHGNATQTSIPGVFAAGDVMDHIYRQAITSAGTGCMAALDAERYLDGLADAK
Nature of the test: Assay for thioredoxin reductase activity after IAM treatment at various pHs. Type of test: biochemical, E. coli. As to conditions: 7 mM IAM, 30 minutes at room temperature. The procedure:
Assay for Thioredoxin Reductase Activity. Thioredoxin reductase was produced in in vitro synthesis reactions as described previously (Knapp and Swartz (2004) FEBS Lett 559:66-70). The pHs of aliquots of the unpurified reaction product were adjusted to the desired values with small volumes of concentrated KOH or HCl. These aliquots were then mixed with a small volume of IAM concentrate to obtain a final IAM concentration of 7 mM. These samples were incubated at room temperature for 30 minutes, and then the thioredoxin reductase activity of the samples was measured. The activity assay for thioredoxin reductase contained the following components: 50 mM NaH2PO4 pH 7.6, 1.5 mM EDTA, 10 mM glucose 6-phosphate, 200 μM DTNB, 300 μM NADPH, 3 μM E. coli thioredoxin (EMD Biosciences; Darmstadt, Germany), and 0.2 U glucose 6-phosphate dehydrogenase (Sigma). Approximately 500 ng of thioredoxin reductase was added to 1 mL of the assay mixture and the rate of increase in absorbance at 412 nm was measured for 90 seconds at 37° C. DTNB produces two molecules of nitrothiobenzoate when it is reduced. The extinction coefficient of nitrothiobenzoate (13,600 M^−1 cm^−1) was used to calculate the rate of reaction.

For `NC(=O)CI` [IAM, iodoacetamide], in the test with reduction of GSSG (KGK10 extract), the “effect on sulfhydryl groups at IAM concentrations greater than 50 μM” value is “slow rate of oxidation of sulfhydryls”. In the test on reduction of GSSG (KGK10 extract, IAM treatment near physiological pH), the “IAM concentration sufficient to eliminate the reduction of GSSG” value came to 50 µM. For the same compound, the “IAM needed to stabilize the oxidized glutathione buffer, KGK10 extract versus KC6 extract” value in the test on reduction of GSSG (in vitro synthesis reactions containing 5 mM GSSG) is “Twenty-fold less”. Besides, the “pH at which IAM inactivation of TrxB begins to lose its effectiveness” value in test [1] is ~5.8.
